The text below walks through data of patent US20160355530A1, “HEPATITIS C INHIBITORS AND USES THEREOF” (AbbVie Inc., priority 2010, published 2016).

The subject of assay [1] is chimeric replicon with genotype 4a NS5B. Description: microbe, parasite or virus in culture. The class given is cell-based, HCV genotype 4a. As to conditions: Hepatitis C virus, read-out: 4a chimera 5% FBS EC50.
The subject of assay [2] is chimeric replicon with genotype 3a NS5B. As to the kind of experiment: microbe, parasite or virus in culture. It counts as cell-based, HCV genotype 3a. As to conditions: Hepatitis C virus, read-out: 3a chimera 5% FBS EC50.
Assay [3] deals with T1, HCV NS5B polymerase 1b BK strain (Hepatitis C virus genotype 1b, UniProt P26663).
T1 construct: six-histidine tag; made in house; host or cells: E. coli
As to the kind of experiment: HCV NS5B polymerase enzymatic inhibition assay, strain 1b BK. It counts as biochemical. As to conditions: enzyme, strain 1b BK; read-out: HCV Polymerase Strain 1b BK IC50. The method in brief:
(§1)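 E. coli-expressed NS5B (residues 1-570, His-tagged) transcribed a 2.1 kb HCV 1b negative-strand 3′-end RNA template (5 nM) with 20 μM CTP, 20 μM ATP and 0.284 μM [3H]UTP for 3 h at 30° C. Spermine-precipitated RNA was filter-captured and counted by scintillation; IC50 from nonlinear regression.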

Assay [4] deals with T2, HCV NS5B polymerase 1a-H77 (Hepatitis C virus genotype 1a, UniProt P27958).
T2 construct: six-histidine tag; made in house; host or cells: E. coli
As to the kind of experiment: biochemical. Further details: species or system HCV genotype 1a. As to conditions: enzyme, strain 1a H77; read-out: HCV Polymerase Strain 1a H77 IC50. The procedure, abridged:
as §1

Assay [5] relates to HCV NS5B polymerase 1a-H77-C316Y. Description: biochemical. As to conditions: ratio of enzyme IC50s, 1a H77-C316Y / 1a H77. On the set-up: species or system HCV genotype 1a. The method in brief: as §1
Assay [6] deals with T3, HCV NS5B polymerase 1a-H77-C316Y (Hepatitis C virus genotype 1a, UniProt P27958, C2736Y).
T3 construct: six-histidine tag; made in house; host or cells: E. coli
Description: biochemical. On the set-up: species or system HCV genotype 1a. The procedure, abridged: as §1

For assay [7], the system named is chimeric replicon with genotype 2b NS5B. As to the kind of experiment: microbe, parasite or virus in culture. It counts as cell-based, HCV genotype 2b. As to conditions: Hepatitis C virus, read-out: 2b chimera 5% FBS EC50.
In assay [8] the test system is chimeric replicon with 2a-J6CF-derived NS5B. As to the kind of experiment: microbe, parasite or virus in culture. It counts as cell-based, HCV genotype 2a. As to conditions: Hepatitis C virus, read-out: 2a chimera 5% FBS EC50.
Assay [9] has as its system HCV 1a-H77-C316Y transient subgenomic replicon in Huh-7 derived cell line. As to the kind of experiment: microbe, parasite or virus in culture. The class given is cell-based, HCV genotype 1a. As to conditions: for EC50: Hepatitis C virus, Huh-7, read-out: Transient Replicon 1a H77-C316Y 5% FBS EC50; for Transient Replicon Fold Resistance C316Y/1a: ratio of transient replicon EC50s, C316Y / 1a H77. As to the method: (§2) In addition to the stable replicon inhibition assays, transient replicon assays were performed. Transient replicons are identical to the 1a-H77 and 1a-H77-C316Y constructs, except they lack the Neo gene, making it impossible to establish stable cell lines. A T7 Megascript RNA synthesis kit (Ambion) was used to transcribe the HCV subgenomic RNA. The HCV RNA was then precipitated with lithium chloride according to manufacturer's instructions. The HCV subgenomic replicon RNA was transfected via electroporation into a Huh-7 derived cell line as described (Middleton T, et al. J. Virological Methods 2007; 145(2): 137-145). Transfected cells were diluted and plated in 96 well plates at 5×10^3 cells per well in DMEM. Four hours post-transfection, the wells from one plate were harvested for luciferase measurement. This plate provides a measure of the amount of translatable input RNA, and therefore transfection efficiency. To the wells of the remaining plates, a 3-fold dilution series of test compounds was added in DMSO (0.5% DMSO final concentration), and plates were incubated at 37° C., 5% CO2 in a humidified incubator for 4 days. After this period, the media was removed and the plates were washed with 100 μL phosphate-buffered saline per well. For the luciferase assay, 30 μL of Passive Lysis buffer (Promega) was added to each well, and then the plates were incubated for 15 minutes with rocking to lyse the cells. Luciferin solution (100 μL, Promega) was added to each well, and luciferase activity was measured with a Victor II luminometer (Perkin-Elmer). The EC50 values were calculated using GraphPad Prism 4 software.

In assay [10] the test system is HCV 1a-H77 transient subgenomic replicon in Huh-7 derived cell line. Description: microbe, parasite or virus in culture. The class given is cell-based, HCV genotype 1a. As to conditions: Hepatitis C virus, Huh-7; transient replicon, 5% FBS; read-out: Transient Replicon 1a H77 5% FBS EC50. As to the method: as §2
The test system of assay [11] is HCV 1b-BB7 subgenomic replicon. As to the kind of experiment: microbe, parasite or virus in culture. The class given is cell-based, HCV genotype 1b. As to conditions: Hepatitis C virus, stable replicon.
In assay [12] the test system is HCV 1a-H77 subgenomic replicon. As to the kind of experiment: microbe, parasite or virus in culture. The class given is cell-based, HCV genotype 1a. As to conditions: Hepatitis C virus, stable replicon.
Where [13] appears, read: strain 1b BB7, 5% FBS + 40% human plasma, read-out: 1b BB7 5% FBS + 40% Human Plasma EC50.
[14] abbreviates: strain 1b BB7, 5% FBS, no human plasma, read-out: 1b BB7 5% FBS EC50.
Setting [15] is: strain 1b BB7, 5% FBS, read-out: 1b BB7 5% FBS EC50.
Setting [16] is: 5% FBS, absence of human plasma, read-out: Stable Replicon 1a H77 5% FBS EC50.
Setting [17] is: strain 1a H77, 5% FBS + 40% human plasma, read-out: 1a H77 5% FBS + 40% Human Plasma EC50.
Where [18] appears, read: strain 1a H77, 5% FBS, no human plasma, read-out: 1a H77 5% FBS EC50.
The mark [19] stands for this setting: strain 1a H77, 5% FBS, read-out: 1a H77 5% FBS EC50.

Read-outs that look alike come from different tables or passages of the source.

T3 sequence (P27958 2421-2990 C2736Y): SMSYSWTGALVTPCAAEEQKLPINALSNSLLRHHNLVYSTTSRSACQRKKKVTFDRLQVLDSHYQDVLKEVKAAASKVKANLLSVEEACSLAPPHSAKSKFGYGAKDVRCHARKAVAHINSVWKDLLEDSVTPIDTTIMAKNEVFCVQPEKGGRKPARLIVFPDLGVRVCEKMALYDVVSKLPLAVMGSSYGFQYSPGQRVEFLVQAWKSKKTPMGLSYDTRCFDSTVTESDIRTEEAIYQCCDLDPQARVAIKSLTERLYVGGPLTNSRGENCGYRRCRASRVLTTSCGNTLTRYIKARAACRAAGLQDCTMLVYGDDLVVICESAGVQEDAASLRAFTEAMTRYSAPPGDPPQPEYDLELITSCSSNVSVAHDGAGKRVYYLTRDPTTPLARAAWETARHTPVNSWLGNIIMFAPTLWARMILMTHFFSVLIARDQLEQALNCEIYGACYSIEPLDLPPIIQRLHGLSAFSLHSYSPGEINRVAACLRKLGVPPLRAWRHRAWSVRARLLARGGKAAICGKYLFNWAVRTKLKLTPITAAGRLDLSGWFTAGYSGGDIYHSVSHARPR
T1 sequence (P26663 2420-2989): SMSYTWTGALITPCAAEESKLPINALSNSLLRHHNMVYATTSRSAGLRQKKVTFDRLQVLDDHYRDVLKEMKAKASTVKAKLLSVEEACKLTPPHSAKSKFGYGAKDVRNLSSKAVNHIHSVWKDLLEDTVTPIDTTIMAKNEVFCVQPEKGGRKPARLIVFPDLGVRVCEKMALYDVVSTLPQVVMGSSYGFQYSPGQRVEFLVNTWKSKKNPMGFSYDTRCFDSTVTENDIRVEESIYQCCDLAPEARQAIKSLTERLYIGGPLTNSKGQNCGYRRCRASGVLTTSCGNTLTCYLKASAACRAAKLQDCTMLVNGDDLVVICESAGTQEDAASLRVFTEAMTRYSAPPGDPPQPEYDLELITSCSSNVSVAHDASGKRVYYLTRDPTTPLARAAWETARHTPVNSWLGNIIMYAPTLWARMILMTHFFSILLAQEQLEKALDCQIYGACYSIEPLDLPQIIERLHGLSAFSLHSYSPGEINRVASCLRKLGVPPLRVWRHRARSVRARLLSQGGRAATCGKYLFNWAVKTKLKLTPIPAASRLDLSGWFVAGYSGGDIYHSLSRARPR
T2 sequence (P27958 2421-2990): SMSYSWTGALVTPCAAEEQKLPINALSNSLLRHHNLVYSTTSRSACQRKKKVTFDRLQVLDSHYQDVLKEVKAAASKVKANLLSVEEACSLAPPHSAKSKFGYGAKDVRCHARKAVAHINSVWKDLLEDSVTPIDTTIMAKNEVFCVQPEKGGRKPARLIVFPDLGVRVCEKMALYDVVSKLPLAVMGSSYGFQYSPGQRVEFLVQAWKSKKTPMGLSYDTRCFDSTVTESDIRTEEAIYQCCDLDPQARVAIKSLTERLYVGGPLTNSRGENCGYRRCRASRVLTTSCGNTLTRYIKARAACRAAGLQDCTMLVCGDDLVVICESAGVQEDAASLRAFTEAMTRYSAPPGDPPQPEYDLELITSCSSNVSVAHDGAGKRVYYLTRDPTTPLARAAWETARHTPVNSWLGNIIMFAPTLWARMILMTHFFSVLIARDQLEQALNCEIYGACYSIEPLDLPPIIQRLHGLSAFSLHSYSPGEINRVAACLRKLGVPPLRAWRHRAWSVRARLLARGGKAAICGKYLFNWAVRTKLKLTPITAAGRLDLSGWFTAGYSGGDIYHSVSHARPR

As for `CS(=O)(=O)N(CCCCO)c1cc2oc(-c3ccc(F)cc3)c(C3=NOCCN3)c2cc1C1CC1` [Example 8, N-[5-cyclopropyl-3-(5,6-dihydro-4H-1,2,4-oxadiazin-3-yl)-2-(4-fluorophenyl)-1-benzofuran-6-yl]-N-(4-hydroxybutyl)methanesulfonamide], the EC50 stood at 71.6 nM in [1]; 19.9 nM in [2]; 101 nM in assay [7]; 117 nM in assay [8]; 31.4 nM in assay [9]; 3.1 nM in [10]. The EC50 in assay [11] (setting [13]) came to 64 nM; in [11] (setting [14]), 10 nM; in [11] (setting [15]), 10 nM; in assay [12] (setting [16]) it was 6.3 nM; in [12] (setting [17]) it was 36 nM; in assay [12] (setting [18]), 6.3 nM. In addition, the EC50 in assay [12] (setting [19]) came to 6.3 nM. In addition, the IC50 in assay [3] was 27 nM; in [4], 4.9 nM; in [6] it was 31 nM. Moreover, the “C316Y/1a Fold Resistance” value in assay [5] amounted to 6 fold. For the same molecule, in assay [9], the “Transient Replicon Fold Resistance C316Y/1a” value was determined as 10 fold.
Turning to `CS(=O)(=O)CCCCN(c1cc2oc(-c3ccc(F)cc3)c(-c3ncc[nH]3)c2cc1C1CC1)S(C)(=O)=O` [Example 6, N-[5-cyclopropyl-2-(4-fluorophenyl)-3-(1H-imidazol-2-yl)-1-benzofuran-6-yl]-N-[4-(methylsulfonyl)butyl]methanesulfonamide], the EC50 in assay [1] stood at 16.1 nM; in assay [2] it was 3.3 nM; in assay [7], 18.8 nM; in [8] it was 26 nM; in [9], 105 nM; in assay [10], 3.2 nM. In addition, the EC50 in assay [11] (setting [13]) was found to be 36.2 nM; in [11] (setting [14]) it was 3.9 nM; in assay [11] (setting [15]), 3.9 nM; in assay [12] (setting [16]), 8.3 nM; in assay [12] (setting [17]), 61.3 nM; in assay [12] (setting [18]), 8.3 nM. Besides, the EC50 in assay [12] (setting [19]) came to 8.32 nM. Further, the IC50 turned out to be 16 nM in assay [3], 5.2 nM in assay [4] and 69 nM in assay [6]. The “C316Y/1a Fold Resistance” value in assay [5] is 13 fold. Besides, in [9], the “Transient Replicon Fold Resistance C316Y/1a” value turned out to be 33 fold.
`Cc1ccc(C)n1-c1nc(CCCN(c2cc3oc(-c4ccc(F)cc4)c(-c4ncc[nH]4)c3cc2C2CC2)S(C)(=O)=O)cs1` [Example 62, N-[5-cyclopropyl-2-(4-fluorophenyl)-3-(1H-imidazol-2-yl)-1-benzofuran-6-yl]-N-{3-[2-(2,5-dimethyl-1H-pyrrol-1-yl)-1,3-thiazol-4-yl]propyl}methanesulfonamide]: the EC50 is 364 nM in assay [1]; 49.9 nM in assay [2]; 471 nM in [7]; 309 nM in assay [8]; 899 nM in assay [9]; 60.6 nM in assay [10]. Moreover, the EC50 turned out to be 328 nM in [11] (setting [13]); 71 nM in assay [11] (setting [14]); 71 nM in assay [11] (setting [15]); 88.7 nM in assay [12] (setting [16]); 342 nM in [12] (setting [17]); 88.7 nM in [12] (setting [18]). Further, the EC50 in assay [12] (setting [19]) came out at 88.7 nM. In addition, the IC50 in [3] is 14 nM; in [4], 3.9 nM; in assay [6], 250 nM. Besides, the “C316Y/1a Fold Resistance” value in assay [5] was found to be 65 fold. In [9], the “Transient Replicon Fold Resistance C316Y/1a” value came to 15 fold.
`CS(=O)(=O)N(CCCc1cc(O)no1)c1cc2oc(-c3ccc(F)cc3)c(-c3ncc[nH]3)c2cc1C1CC1` [Example 7, N-[5-cyclopropyl-2-(4-fluorophenyl)-3-(1H-imidazol-2-yl)-1-benzofuran-6-yl]-N-[3-(3-hydroxy-1,2-oxazol-5-yl)propyl]methanesulfonamide]: the EC50 in assay [1] worked out at 162 nM; in assay [2], 11.1 nM; in [7] it was 178 nM; in [8], 218 nM; in assay [9], 327 nM; in assay [10], 9.9 nM. For the same molecule, the EC50 came to 106 nM in [11] (setting [13]); 5.7 nM in [11] (setting [14]); 5.7 nM in assay [11] (setting [15]); 15 nM in assay [12] (setting [16]); 111 nM in assay [12] (setting [17]); 15 nM in [12] (setting [18]). Besides, the EC50 in assay [12] (setting [19]) came to 15 nM. Further, the IC50 in assay [3] turned out to be 11 nM; in assay [4], 3 nM; in [6] it was 12 nM. In addition, the “C316Y/1a Fold Resistance” value in assay [5] was 4 fold. Besides, in [9], the “Transient Replicon Fold Resistance C316Y/1a” value came out at 33 fold.
On to `CS(=O)(=O)N(Cc1cnc(-c2ccc3[nH]ccc3c2)s1)c1cc2oc(-c3ccc(F)cc3)c(-c3ncc[nH]3)c2cc1C1CC1` [Example 31, N-[5-cyclopropyl-2-(4-fluorophenyl)-3-(1H-imidazol-2-yl)-1-benzofuran-6-yl]-N-{[2-(1H-indol-5-yl)-1,3-thiazol-5-yl]methyl}methanesulfonamide], for which the EC50 in assay [1] worked out at 84 nM; in [7], 151 nM; in assay [8], 185 nM; in assay [9] it was 828 nM; in [10] it was 30.9 nM; in [11] (setting [13]) it was 201 nM. The EC50 in [11] (setting [14]) was 28.4 nM; in assay [11] (setting [15]) it was 28.4 nM; in [12] (setting [16]), 41.6 nM; in assay [12] (setting [17]), 382 nM; in [12] (setting [18]), 41.6 nM; in [12] (setting [19]), 41.6 nM. Moreover, the IC50 in assay [3] worked out at 7 nM; in assay [4], 3.5 nM; in assay [6] it was 172 nM. Also, the “C316Y/1a Fold Resistance” value in [5] amounted to 50 fold. For the same molecule, in [9], the “Transient Replicon Fold Resistance C316Y/1a” value is on record as 27 fold.
On to `CC(C)CCN(c1cc2oc(-c3ccc(F)cc3)c(C3=NOCCN3)c2cc1C1CC1)S(C)(=O)=O` [Example 10, N-[5-cyclopropyl-3-(5,6-dihydro-4H-1,2,4-oxadiazin-3-yl)-2-(4-fluorophenyl)-1-benzofuran-6-yl]-N-(3-methylbutyl)methanesulfonamide], for which the EC50 came to 192 nM in [1]; 16 nM in [2]; 303 nM in assay [7]; 181 nM in assay [8]; 33.5 nM in assay [9]; 6 nM in assay [10]. Also, the EC50 amounted to 171 nM in assay [11] (setting [13]); 16.2 nM in [11] (setting [14]); 16.2 nM in assay [11] (setting [15]); 10.5 nM in assay [12] (setting [16]); 134 nM in [12] (setting [17]); 10.5 nM in [12] (setting [18]). Also, the EC50 in assay [12] (setting [19]) is 10.5 nM. In addition, the IC50 in assay [3] is 105 nM; in assay [4] it was 7 nM; in assay [6] it was 64 nM. The “Transient Replicon Fold Resistance C316Y/1a” value in assay [9] was found to be 6 fold.
